Data reported in ChEMBL document CHEMBL5463723, “Data for DCP probe BIBO3304” (2023).

What was measured:
[1] = molecular target: Thyrotropin-releasing hormone receptor (Rattus norvegicus) (UniProt Q01717); assay: Activity against TRH/R in the Eurofins Panlabs screen (BI) by Radioactive Assay; settings: Compound concentration 10.0 uM
[2] = molecular target: Neuropeptide Y receptor type 2 (Rattus norvegicus, UniProt Q9ERC0); assay: Radioligand binding assay (NPY2R, rat hippocampus); type: tissue-based
[3] = molecular target: Muscarinic acetylcholine receptor M2 (Rattus norvegicus) (UniProt P10980); assay: Activity against M2/R in the Eurofins Panlabs screen (BI) by Radioactive Assay; settings: Compound concentration 10.0 uM
[4] = molecular target: 3',5'-cyclic-AMP phosphodiesterase 4D (Homo sapiens) (UniProt Q08499); assay: Inhibitor of PDE4D2 in the Eurofins Cerep SafetyScreen44 (BI) by Scintillation counting (Cerep_4077); settings: Compound concentration 10.0 uM
[5] = molecular target: Alpha-1A adrenergic receptor (Homo sapiens) (UniProt P35348); assay: Agonist activity in the Eurofins Cerep SafetyScreen44 (BI) against ALPHA1AH_ANTAG by Scintillation counting (Cerep_2338); settings: Compound concentration 10.0 uM
[6] = molecular target: Interleukin-1 receptor type 1 (Mus musculus) (UniProt P13504); assay: Activity against IL-1ALPHA/M in the Eurofins Panlabs screen (BI) by Radioactive Assay; settings: Compound concentration 10.0 uM
[7] = molecular target: Beta-1 adrenergic receptor (Oryctolagus cuniculus) (UniProt A0A4Y6F0G0); assay: Activity against BETA1/RB in the Eurofins Panlabs screen (BI) by Radioactive Assay; settings: Compound concentration 10.0 uM
[8] = molecular target: Glutamate NMDA receptor (Rattus norvegicus) (UniProt P35439+Q00959+Q00960+Q00961+Q62645+Q8VHN2+Q9R1M7); assay: Inhibitor of NMDA/R in the Eurofins Cerep SafetyScreen44 (BI) by Radioactive Assay (Cerep_66); type: protein-complex assay; settings: Compound concentration 10.0 uM
[9] = species on record: Cavia porcellus; assay: Activity against SIGMA/NS/GP in the Eurofins Panlabs screen (BI) by Radioactive Assay; settings: Compound concentration 10.0 uM
[10] = molecular target: Adrenergic receptor alpha-2 (Rattus norvegicus) (UniProt P22086+P19328+P22909); assay: Activity against ALPHA2/R in the Eurofins Panlabs screen (BI) by Others; type: protein assay; settings: Compound concentration 10.0 uM
[11] = molecular target: Alpha-2A adrenergic receptor (Homo sapiens) (UniProt P08913); assay: Inhibitor of ALPHA2A/HU in the Eurofins Cerep SafetyScreen44 (BI) by Radioactive Assay (Cerep_13); settings: Compound concentration 10.0 uM
[12] = molecular target: Cannabinoid receptor 1 (Homo sapiens) (UniProt P21554); assay: CB1 Eurofins-Cerep binding assay; settings: Compound concentration 10.0 uM
[13] = molecular target: Leukotriene C4 synthase (Cavia porcellus) (UniProt A6XA80); assay: Inhibitor of LTC4SYN in the Eurofins Panlabs screen (BI) by Radioactive Assay; settings: Compound concentration […] uM
[14] = molecular target: Glutamate receptor ionotropic, NMDA 2A (Rattus norvegicus) (UniProt Q00959); assay: Activity against NMDAPHSI/R in the Eurofins Panlabs screen (BI) by Radioactive Assay; settings: Compound concentration 10.0 uM
[15] = molecular target: Type-1 angiotensin II receptor (Oryctolagus cuniculus) (UniProt P34976); assay: Activity against ATII/RB in the Eurofins Panlabs screen (BI) by Radioactive Assay; settings: Compound concentration 10.0 uM
[16] = molecular target: Epidermal growth factor receptor (Homo sapiens) (UniProt P00533); assay: Activity against EGF/HU in the Eurofins Panlabs screen (BI) by Radioactive Assay; settings: Compound concentration 10.0 uM
[17] = molecular target: Nitric oxide synthase, inducible (Mus musculus) (UniProt P29477); assay: Activity against INOS in the Eurofins Panlabs screen (BI) by absorption of electromagnetic radiation; settings: Compound concentration 10.0 uM
[18] = molecular target: D(1B) dopamine receptor (Homo sapiens) (UniProt P21918); assay: Activity against D5/HU in the Eurofins Panlabs screen (BI) by Radioactive Assay; settings: Compound concentration 10.0 uM
[19] = molecular target: Acetyl-coenzyme A synthetase, cytoplasmic (Homo sapiens) (UniProt Q9NR19); assay: Inhibitor of ACOASYN in the Eurofins Panlabs screen (BI) by Radioactive Assay; settings: Compound concentration 100.0 uM
[20] = molecular target: Histamine H3 receptor (Rattus norvegicus) (UniProt Q9QYN8); assay: Activity against H3/R in the Eurofins Panlabs screen (BI) by […]; settings: Compound concentration 10.0 uM
[21] = molecular target: Glutamate receptor ionotropic, NMDA 1 (Rattus norvegicus) (UniProt P35439); assay: Activity against NMDAGLSI/R in the Eurofins Panlabs screen (BI) by Radioactive Assay; settings: Compound concentration 10.0 uM
[22] = molecular target: Glucocorticoid receptor (Homo sapiens) (UniProt P04150); assay: GR Eurofins-Cerep binding assay; settings: Compound concentration 10.0 uM
[23] = molecular target: Bombesin receptor subtype-3 (Rattus norvegicus) (UniProt Q8K418); assay: Activity against BOMBESIN/R in the Eurofins Panlabs screen (BI) by Radioactive Assay; settings: Compound concentration 10.0 uM
[24] = molecular target: Somatostatin receptor type 5 (Mus musculus) (UniProt O08858); assay: Activity against SOMATOS/MO in the Eurofins Panlabs screen (BI) by Radioactive Assay; settings: Compound concentration 10.0 uM
[25] = molecular target: 5-hydroxytryptamine receptor 3A (Homo sapiens) (UniProt P46098); assay: 5-HT3 Eurofins-Cerep binding assay; set-up: ligand concentration 0.5 nM; settings: Compound concentration 10.0 uM
[26] = molecular target: Vasopressin V1a receptor (Homo sapiens) (UniProt P37288); assay: V1a Eurofins-Cerep binding assay; set-up: ligand concentration 0.3 nM; settings: Compound concentration 10.0 uM
[27] = molecular target: D(2) dopamine receptor (Homo sapiens) (UniProt P14416); assay: Agonist activity in the Eurofins Cerep SafetyScreen44 (BI) against D2SH_AGON by Scintillation counting (Cerep_1322); settings: Compound concentration 10.0 uM
[28] = molecular target: Transmembrane protein 97 (Cavia porcellus) (UniProt H0V073); assay: Activity against SIGMA2/GP in the Eurofins Panlabs screen (BI) by Radioactive Assay; settings: Compound concentration 10.0 uM
[29] = molecular target: Vasopressin V1a receptor (Rattus norvegicus) (UniProt P30560); assay: Activity against V1/RA in the Eurofins Panlabs screen (BI) by Radioactive Assay; settings: Compound concentration 10.0 uM
[30] = molecular target: Muscarinic acetylcholine receptor (Oryctolagus cuniculus) (UniProt A0A5F9DUN4); assay: Activity against M4/RB in the Eurofins Panlabs screen (BI) by Radioactive Assay; settings: Compound concentration 10.0 uM
[31] = molecular target: Neuronal acetylcholine receptor subunit beta-2 (Rattus norvegicus) (UniProt P12390); assay: Activity against NACH/CENT/R in the Eurofins Panlabs screen (BI) by Radioactive Assay; settings: Compound concentration 10.0 uM
[32] = molecular target: G_PROTEIN_RECEP_F1_2 domain-containing protein (Cavia porcellus) (UniProt A0A286XTF2); assay: Activity against DELTA/GP in the Eurofins Panlabs screen (BI) by Radioactive Assay; settings: Compound concentration 10.0 uM
[33] = molecular target: Small conductance calcium-activated potassium channel protein 1 (Rattus norvegicus) (UniProt P70606); assay: Activity against K+/SKCA in the Eurofins Panlabs screen (BI) by Radioactive Assay; settings: Compound concentration 10.0 uM
[34] = molecular target: Epidermal growth factor receptor (Homo sapiens) (UniProt P00533); assay: Inhibitor of EGFRTYRKIN in the Eurofins Panlabs screen (BI) by Fluorimetry; settings: Compound concentration 10.0 uM
[35] = molecular target: Protein kinase C gamma type (Homo sapiens) (UniProt P05129); assay: Inhibitor of PKCGAMMA in the Eurofins Panlabs screen (BI) by Radioactive Assay; settings: Compound concentration 10.0 uM
[36] = molecular target: Neuropeptide Y receptor type 4 (Rattus norvegicus, UniProt Q63447); assay: Radioligand binding assay (rat NPY4R, CHO cells); type: cell-based
[37] = molecular target: Gastrin/cholecystokinin type B receptor (Mus musculus) (UniProt P56481); assay: Activity against CCKB/M in the Eurofins Panlabs screen (BI); settings: Compound concentration 10.0 uM
[38] = molecular target: Histamine H1 receptor (Homo sapiens) (UniProt P35367); assay: H1 Eurofins-Cerep binding assay; set-up: ligand concentration 1 nM; settings: Compound concentration 10.0 uM
Chain of Histamine H1 receptor (Homo sapiens) (P35367 whole entry): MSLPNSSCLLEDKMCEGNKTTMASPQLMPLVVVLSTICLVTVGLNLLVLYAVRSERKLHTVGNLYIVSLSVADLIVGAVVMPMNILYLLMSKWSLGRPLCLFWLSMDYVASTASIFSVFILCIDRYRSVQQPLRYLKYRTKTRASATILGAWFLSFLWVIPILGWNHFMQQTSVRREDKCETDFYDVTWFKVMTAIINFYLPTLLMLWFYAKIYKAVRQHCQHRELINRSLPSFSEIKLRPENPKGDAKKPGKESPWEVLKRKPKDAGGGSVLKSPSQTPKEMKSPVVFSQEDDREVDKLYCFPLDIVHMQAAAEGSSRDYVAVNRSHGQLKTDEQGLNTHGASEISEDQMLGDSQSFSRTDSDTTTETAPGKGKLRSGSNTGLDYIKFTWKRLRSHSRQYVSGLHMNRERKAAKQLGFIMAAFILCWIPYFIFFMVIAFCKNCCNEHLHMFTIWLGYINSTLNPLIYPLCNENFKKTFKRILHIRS

Chain of Epidermal growth factor receptor (Homo sapiens) (P00533 whole entry): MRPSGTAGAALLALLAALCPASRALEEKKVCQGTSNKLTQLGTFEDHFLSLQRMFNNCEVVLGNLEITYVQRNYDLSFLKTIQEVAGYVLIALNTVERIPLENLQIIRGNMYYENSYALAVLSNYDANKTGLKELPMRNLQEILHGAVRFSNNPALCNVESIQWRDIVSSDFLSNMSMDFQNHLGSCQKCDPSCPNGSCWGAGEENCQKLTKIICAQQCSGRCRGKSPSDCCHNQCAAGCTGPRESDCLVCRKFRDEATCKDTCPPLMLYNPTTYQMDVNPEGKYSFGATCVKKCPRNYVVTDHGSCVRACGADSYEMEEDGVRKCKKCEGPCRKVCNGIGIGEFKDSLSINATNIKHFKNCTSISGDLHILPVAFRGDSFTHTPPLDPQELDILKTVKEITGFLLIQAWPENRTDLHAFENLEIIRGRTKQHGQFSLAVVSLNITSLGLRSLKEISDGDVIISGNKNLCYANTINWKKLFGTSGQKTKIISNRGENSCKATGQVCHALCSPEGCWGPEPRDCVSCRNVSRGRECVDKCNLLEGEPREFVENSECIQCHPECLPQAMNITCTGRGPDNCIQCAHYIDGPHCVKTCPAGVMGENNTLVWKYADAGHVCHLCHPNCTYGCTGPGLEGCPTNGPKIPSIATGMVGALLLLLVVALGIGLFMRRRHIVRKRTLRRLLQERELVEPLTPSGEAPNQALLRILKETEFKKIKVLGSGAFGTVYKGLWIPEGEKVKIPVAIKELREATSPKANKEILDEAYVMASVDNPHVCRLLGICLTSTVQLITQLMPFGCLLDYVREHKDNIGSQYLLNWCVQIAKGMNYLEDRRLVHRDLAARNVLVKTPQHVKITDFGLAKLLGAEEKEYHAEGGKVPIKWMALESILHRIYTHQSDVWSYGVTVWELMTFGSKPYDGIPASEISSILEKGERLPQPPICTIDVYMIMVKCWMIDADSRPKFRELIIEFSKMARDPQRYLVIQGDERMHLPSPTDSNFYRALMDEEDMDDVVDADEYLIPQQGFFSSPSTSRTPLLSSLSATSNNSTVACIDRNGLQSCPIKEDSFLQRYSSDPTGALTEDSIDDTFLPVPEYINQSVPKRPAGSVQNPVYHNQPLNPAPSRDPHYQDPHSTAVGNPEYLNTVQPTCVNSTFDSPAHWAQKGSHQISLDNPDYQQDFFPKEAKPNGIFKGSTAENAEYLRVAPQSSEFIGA
Chain of Transmembrane protein 97 (Cavia porcellus) (H0V073 as listed by the source): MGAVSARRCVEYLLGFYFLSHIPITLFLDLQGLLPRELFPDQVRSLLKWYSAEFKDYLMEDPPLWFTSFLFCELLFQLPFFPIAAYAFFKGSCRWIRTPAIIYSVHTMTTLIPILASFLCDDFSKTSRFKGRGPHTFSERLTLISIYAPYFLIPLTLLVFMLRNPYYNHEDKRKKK
Chain of Nitric oxide synthase, inducible (Mus musculus) (P29477 whole entry): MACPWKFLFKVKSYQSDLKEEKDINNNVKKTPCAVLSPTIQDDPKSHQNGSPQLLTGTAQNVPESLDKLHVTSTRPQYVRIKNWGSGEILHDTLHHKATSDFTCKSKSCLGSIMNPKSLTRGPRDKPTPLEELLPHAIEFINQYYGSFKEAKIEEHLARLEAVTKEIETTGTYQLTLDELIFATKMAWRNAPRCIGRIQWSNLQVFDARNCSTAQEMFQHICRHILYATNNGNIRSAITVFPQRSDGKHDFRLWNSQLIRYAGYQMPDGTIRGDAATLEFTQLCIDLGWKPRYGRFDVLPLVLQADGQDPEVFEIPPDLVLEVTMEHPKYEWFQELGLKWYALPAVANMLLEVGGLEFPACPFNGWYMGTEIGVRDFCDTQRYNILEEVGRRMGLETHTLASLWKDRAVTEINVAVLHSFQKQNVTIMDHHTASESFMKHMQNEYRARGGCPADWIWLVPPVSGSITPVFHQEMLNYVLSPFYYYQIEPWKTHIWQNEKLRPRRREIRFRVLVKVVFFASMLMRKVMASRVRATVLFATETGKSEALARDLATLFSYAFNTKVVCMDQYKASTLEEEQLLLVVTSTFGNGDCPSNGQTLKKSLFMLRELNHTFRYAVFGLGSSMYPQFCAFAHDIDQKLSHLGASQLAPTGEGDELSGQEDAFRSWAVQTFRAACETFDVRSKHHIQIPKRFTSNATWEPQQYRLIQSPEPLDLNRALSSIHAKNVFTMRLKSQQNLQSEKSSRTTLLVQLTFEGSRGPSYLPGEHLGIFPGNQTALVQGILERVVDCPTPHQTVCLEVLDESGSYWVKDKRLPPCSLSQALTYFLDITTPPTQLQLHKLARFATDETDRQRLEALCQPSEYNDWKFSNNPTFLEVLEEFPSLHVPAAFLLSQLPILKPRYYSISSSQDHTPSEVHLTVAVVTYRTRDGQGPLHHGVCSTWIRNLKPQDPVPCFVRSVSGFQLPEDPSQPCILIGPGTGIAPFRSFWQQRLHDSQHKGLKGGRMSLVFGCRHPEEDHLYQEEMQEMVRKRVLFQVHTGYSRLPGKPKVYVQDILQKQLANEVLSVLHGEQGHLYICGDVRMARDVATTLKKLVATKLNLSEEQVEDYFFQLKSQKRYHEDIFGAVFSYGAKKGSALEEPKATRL
Chain of Bombesin receptor subtype-3 (Rattus norvegicus) (Q8K418 whole entry): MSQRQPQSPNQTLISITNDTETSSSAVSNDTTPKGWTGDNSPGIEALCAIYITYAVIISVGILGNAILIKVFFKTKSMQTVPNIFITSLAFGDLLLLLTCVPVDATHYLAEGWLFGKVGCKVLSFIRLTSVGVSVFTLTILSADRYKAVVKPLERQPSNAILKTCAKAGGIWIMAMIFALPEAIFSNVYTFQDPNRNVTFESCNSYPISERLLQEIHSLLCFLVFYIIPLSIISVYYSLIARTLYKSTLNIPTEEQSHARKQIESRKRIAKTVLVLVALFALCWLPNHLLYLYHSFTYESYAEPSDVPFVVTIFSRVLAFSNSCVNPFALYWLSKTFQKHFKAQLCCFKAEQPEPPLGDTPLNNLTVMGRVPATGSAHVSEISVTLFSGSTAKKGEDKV
Chain of 3',5'-cyclic-AMP phosphodiesterase 4D (Homo sapiens) (Q08499 whole entry): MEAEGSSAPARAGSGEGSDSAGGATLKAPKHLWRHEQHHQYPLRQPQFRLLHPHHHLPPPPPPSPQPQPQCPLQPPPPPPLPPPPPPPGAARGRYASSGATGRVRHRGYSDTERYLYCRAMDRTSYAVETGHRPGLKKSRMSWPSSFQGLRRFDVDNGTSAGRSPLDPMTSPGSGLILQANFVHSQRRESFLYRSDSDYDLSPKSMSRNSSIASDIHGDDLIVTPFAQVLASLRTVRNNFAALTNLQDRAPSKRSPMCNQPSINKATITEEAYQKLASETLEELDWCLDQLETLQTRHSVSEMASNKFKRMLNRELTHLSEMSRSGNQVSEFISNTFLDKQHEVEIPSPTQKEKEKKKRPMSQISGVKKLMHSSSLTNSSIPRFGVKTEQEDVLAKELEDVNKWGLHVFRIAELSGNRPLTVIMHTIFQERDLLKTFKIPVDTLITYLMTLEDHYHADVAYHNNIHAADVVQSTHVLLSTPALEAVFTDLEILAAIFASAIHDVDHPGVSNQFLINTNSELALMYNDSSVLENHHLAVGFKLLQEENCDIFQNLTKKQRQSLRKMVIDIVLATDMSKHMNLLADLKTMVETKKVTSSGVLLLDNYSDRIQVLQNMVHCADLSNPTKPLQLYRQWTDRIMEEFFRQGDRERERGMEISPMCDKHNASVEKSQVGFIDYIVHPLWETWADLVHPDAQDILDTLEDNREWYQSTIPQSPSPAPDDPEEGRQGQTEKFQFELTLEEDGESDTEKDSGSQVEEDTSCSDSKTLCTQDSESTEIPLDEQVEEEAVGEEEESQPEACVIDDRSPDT
Chain of Vasopressin V1a receptor (Homo sapiens) (P37288 whole entry, looked up): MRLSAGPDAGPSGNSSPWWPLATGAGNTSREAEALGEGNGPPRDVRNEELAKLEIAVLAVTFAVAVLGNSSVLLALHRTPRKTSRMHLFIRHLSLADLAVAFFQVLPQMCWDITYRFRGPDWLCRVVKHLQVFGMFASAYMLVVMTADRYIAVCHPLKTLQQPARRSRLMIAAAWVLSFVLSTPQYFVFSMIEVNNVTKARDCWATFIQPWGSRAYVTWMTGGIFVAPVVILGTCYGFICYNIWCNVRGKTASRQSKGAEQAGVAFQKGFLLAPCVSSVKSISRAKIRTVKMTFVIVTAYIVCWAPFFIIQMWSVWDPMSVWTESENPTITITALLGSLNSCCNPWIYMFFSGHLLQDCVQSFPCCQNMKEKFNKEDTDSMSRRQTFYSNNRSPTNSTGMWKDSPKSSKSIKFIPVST
Chain of Type-1 angiotensin II receptor (Oryctolagus cuniculus) (P34976 whole entry): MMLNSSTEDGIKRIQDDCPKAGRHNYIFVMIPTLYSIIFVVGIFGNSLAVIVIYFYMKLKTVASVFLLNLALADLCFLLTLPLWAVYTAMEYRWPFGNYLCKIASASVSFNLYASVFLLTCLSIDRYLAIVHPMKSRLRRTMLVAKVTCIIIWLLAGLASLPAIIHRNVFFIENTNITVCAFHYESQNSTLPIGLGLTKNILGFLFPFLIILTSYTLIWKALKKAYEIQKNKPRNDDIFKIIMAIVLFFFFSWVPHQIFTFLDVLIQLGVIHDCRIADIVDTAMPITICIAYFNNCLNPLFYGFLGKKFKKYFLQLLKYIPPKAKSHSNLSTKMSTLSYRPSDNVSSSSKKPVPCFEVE

With N=C(N)NCCC[C@@H](NC(=O)C(c1ccccc1)c1ccccc1)C(=O)NCc1ccc(CNC(N)=O)cc1 the residual activity [1] was 84%, the IC50 [2] was > 10 µM (not active) and the residual activity [3] was 98%. It also gave a residual activity [4] of 91%, a residual activity [5] of 102% and a residual activity [6] of 88%. It also gave a residual activity [7] of 82%, a residual activity [8] of 109% and a residual activity [9] of 100%. For the same compound, the residual activity [10] was 96%, the residual activity [11] was 93% and the residual activity [12] was 107%. For the same compound, the residual activity [13] was 97%, the residual activity [14] was 77% and the residual activity [15] was 99%. For the same compound, the residual activity [16] was 94%, the residual activity [17] was 99% and the residual activity [18] was 94%. The residual activity [19] was 100%, the residual activity [20] was 104% and the residual activity [21] was 87%. It also gave a residual activity [22] of 98%, a residual activity [23] of 100% and a residual activity [24] of 103%. The residual activity [25] was 91%, the residual activity [26] was 29% and the residual activity [27] was 40%. For the same compound, the residual activity [28] was 109%, the residual activity [29] was 98% and the residual activity [30] was 110%. It also gave a residual activity [31] of 98%, a residual activity [32] of 80% and a residual activity [33] of 119%. The residual activity [34] was 83%, the residual activity [35] was 92% and the IC50 [36] was > 10 µM (not active). It also gave a residual activity [37] of 117% and a residual activity [38] of 75%.
